Experimental data taken from patent US20250213548A1, “PHARMACEUTICAL COMPOSITIONS FOR IMPROVING ORAL BIOAVAILABILITY” (Bristol-Myers Squibb Company, priority 2022, published 2025).

Tests used:
in vivo [1] = details: dog, iv, 10 mg
Method: Dogs were administered formulations as follows: • 2×50 mg tablets with 10% API (Example 10, 88.6 mg dose after API potency correction) • 10×10-mg tablets with 10% API (Example 11, 88.6 mg dose after API potency correction) • 5×10 mg tablets with 10% API (Example 11, 44.3 mg dose after API potency correction) and 5 placebo tablets with enhancer only. • 10×5 mg tablets with 5% API (44.3 mg dose after API potency correction) • 40×2.5 mg tablets with 10% API (Example X, 100 mg dose after potency correction)

in vivo [2] = details: cynomolgus monkey, iv
Method: (§1) Four coated tablets were added in each #00 gray opaque hard gelatin capsule for the cyno PK study. Each cyno monkey was dosed with 2 capsules (8 coated tablets).
(§2) Fasted male cyno monkeys (n=3) were dosed by oral route followed by gavage flush with water to facilitate gastro-intestinal dissolution. Blood samples were taken at predetermined times over 72 hours post-dose to measure comparative pharmacokinetics between the formulations. Due to the long half-life these were conducted in a parallel group design in different sets of cyno monkeys.

in vivo [3] = details: beagle, dog, iv, 10 mg
Method: (§3) Fasted pentagastrin-pretreated male beagle dogs (n=4) were dosed by oral route followed by gavage flush with water to facilitate gastro-intestinal dissolution. Blood samples were taken at predetermined times over 72 hours post-dose to measure comparative pharmacokinetics between the formulations. Due to the long half-life these were conducted in a parallel group design in different sets of dogs.

[4] = rat, in vivo
Method: The study was run as a two-treatment, two-segment, parallel study in anesthetized, fasted, male Sprague Dawley rats (rat weight: ˜300 g) with 4 rats per group.
For duodenal absorptional testing, the rats were ligated at pylorus (proximal) and the subject formulation was injected directly into duodenum 5 cm past pylorus ligation (about 15 cm from the pylorus) and the distal part of the segment was ligated to contain drug in intestinal segment.
Samples of the dosed solution from gastric and duodenal segments were extracted at 60 min to measure remaining drug concentrations.

in vivo [5] = details: beagle, dog, iv, 10 mg; remark: listed apart in the source
Method: as §3

[6] = Oral absorption of prepared formulations of Compound (II) in dogs (Example 10, 70 mg); details: beagle, dog, blood, iv, 10 mg
Method: as §3

[7] = cynomolgus monkey, in vivo, iv, 0.1 mg/kg
Method: as §1, §2

[8] = Oral absorption of formulated tablets of Compound (II) in cyno monkeys (PK); details: cynomolgus monkey, iv, 0.1 mg/kg
Method: as §1, §2

**Q.** Which Cmax (in vivo [1]) does the source give for `CCCC[C@H]1C(=O)N(C)[C@@H](CCCC)C(=O)N[C@@H](CC(C)C)C(=O)N[C@H](C(=O)NCC(=O)N[C@@H](Cc2cn(CCOCCOCCCOCCCOCCOCCOCCOCCOCCOCCOCCOCCNC(=O)CC[C@H](NC(=O)CCCCCCCCCCCCCCCCC(=O)O)C(=O)O)nn2)C(=O)O)CSCC(=O)N[C@@H](Cc2ccc(O)cc2)C(=O)N(C)[C@@H](C)C(=O)N[C@@H](CC(N)=O)C(=O)N2CCC[C@H]2C(=O)N[C@@H](CN)C(=O)N[C@@H](CC(C)C)C(=O)N2C[C@H](O)C[C@H]2C(=O)N[C@@H](Cc2c[nH]c3ccccc23)C(=O)N[C@@H](CCN)C(=O)N[C@@H](Cc2cn(CC(=O)O)c3ccccc23)C(=O)N1C` [Compound (II)] here?
**A.** Its Cmax is 25500 ng/mL.

**Q.** And the Tmax (in vivo [1])?
**A.** Its Tmax is 12 min.

**Q.** What about the AUC(0-t) (in vivo [1]; AUC0-24 h (ng · h/mL) Mean) of the same compound?
**A.** Its AUC(0-t) is 376 µg·h/mL.

**Q.** And the AUC(0-t) (in vivo [1]; AUC0-72 h (ng · h/mL) Mean)?
**A.** The AUC(0-t) was 833 µg·h/mL.

**Q.** What about the Tmax (in vivo [2]; 0.1 mg/kg) of the same compound?
**A.** Its Tmax is 18 min.

**Q.** And the level at time molar at 24 h (in vivo [2]; 0.1 mpk)?
**A.** Its level at time molar at 24 h is 0.544 µM.

**Q.** And the AUC(0-inf) (in vivo [3])?
**A.** The AUC(0-inf) was 402 µM·h.

**Q.** And the Cmax (in vivo [3])?
**A.** Its Cmax is 8.55 µM.

**Q.** What about the Tmax (in vivo [3]) of the same compound?
**A.** The Tmax was 12 min.

**Q.** And the AUC(0-t) (in vivo [3]; AUC0-24 h (nM · h) Mean)?
**A.** The AUC(0-t) was 126 µM·h.

**Q.** And the AUC(0-t) (in vivo [3]; AUC0-t (nM · h)* Mean)?
**A.** The AUC(0-t) was 322 µM·h.

**Q.** What about the “systemic absorption, intestinal compartment compared to the gastric compartment” value [4] of the same compound?
**A.** Its value is “good systemic absorption”.

**Q.** What about the Tmax (in vivo [5]) of the same compound?
**A.** Its Tmax is 12 min.

**Q.** What about the AUC(0-inf) [6] of the same compound?
**A.** Its AUC(0-inf) is 402 µM·h.

**Q.** What about the Cmax [6] of the same compound?
**A.** The Cmax was 8.55 µM.

**Q.** What about the “BA (%) using AUCInf Mean” value [7] of the same compound?
**A.** Its value is 100.00%.

**Q.** And the AUC(0-inf) ([8]; blood)?
**A.** The AUC(0-inf) was 52 µM·h.

**Q.** And the AUC(0-t) ([8]; in vivo)?
**A.** The AUC(0-t) was 47.6 µM·h.

**Q.** What about the Cmax ([8]; in vivo) of the same compound?
**A.** Its Cmax is 0.798 µM.
